Assays:
SARS-COV-2 spike protein = molecular target: T1, SARS-COV-2 spike protein (Severe acute respiratory syndrome coronavirus 2, UniProt P0DTC2); test: Surface plasmon resonance (SPR) analysis; assay type: binding; settings: for Activity (actual) / Activity (calculated) / Rmax (actual) / Rmax (calculated): SPR, analyte 0.4-100 μM, SCK; for Rmax (actual) / Rmax (calculated): 25° C.
T1 construct: Target/ligand: SARS-COV2 RBD; 4815 RU captured; purchased R&D Systems, Inc., Minneapolis, MN AVI10500

ACE2 = ACE2 (Homo sapiens, UniProt Q9BYF1); test: In vitro fluorescence ligand binding assay (relative ACE2 inhibition); settings: for remaining activity at 100 µM: read-out: % of control/blank fluorescence; for IC50: fluorescence binding assay, relative ACE2 inhibition
ACE2, sequence (Q9BYF1 18-805): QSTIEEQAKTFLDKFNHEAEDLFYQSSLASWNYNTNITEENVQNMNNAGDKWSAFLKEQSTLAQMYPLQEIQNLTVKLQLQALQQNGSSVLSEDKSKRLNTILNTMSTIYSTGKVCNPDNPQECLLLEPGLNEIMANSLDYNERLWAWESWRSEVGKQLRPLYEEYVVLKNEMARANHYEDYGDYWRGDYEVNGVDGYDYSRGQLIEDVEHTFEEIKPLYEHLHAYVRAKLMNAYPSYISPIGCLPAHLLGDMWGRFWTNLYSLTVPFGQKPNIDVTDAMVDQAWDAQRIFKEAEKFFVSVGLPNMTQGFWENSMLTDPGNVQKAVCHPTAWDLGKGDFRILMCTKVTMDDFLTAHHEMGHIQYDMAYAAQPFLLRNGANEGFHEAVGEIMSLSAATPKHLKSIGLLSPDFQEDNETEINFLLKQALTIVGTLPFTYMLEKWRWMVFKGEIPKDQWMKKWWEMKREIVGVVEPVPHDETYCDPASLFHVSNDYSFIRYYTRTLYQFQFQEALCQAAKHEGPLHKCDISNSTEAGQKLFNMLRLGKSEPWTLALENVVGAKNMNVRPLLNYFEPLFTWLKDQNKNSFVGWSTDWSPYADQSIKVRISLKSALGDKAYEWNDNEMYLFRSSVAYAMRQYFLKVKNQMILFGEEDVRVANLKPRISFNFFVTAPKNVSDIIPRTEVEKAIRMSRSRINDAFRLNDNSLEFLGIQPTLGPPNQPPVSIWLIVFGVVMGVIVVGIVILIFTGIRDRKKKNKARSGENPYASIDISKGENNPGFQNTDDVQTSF
Method: A fluorescence ligand bind assay (Lora Benoit, Vinayak Shenoy, Simon Meykler, Ali Mohseni. SARS-COV-2 spike protein 13-mer subdomain corresponds to the drug-binding domain of glutamyl-propyl-tRNA synthetase 1 and is targetable by halofuginone, 22 Jul. 2021, PREPRINT (Version 1) available at Research Square [world wide web at doi.org/10.21203/rs.3.rs-738132/v1]) used to test the binding of various flavonoids. Fluorescence values increased over time (likely due to evaporation at 37° C.), but differences in fluorescence intensity after a kinetic read may be used to calculate relative ACE2 inhibition.

[1] = SPR FIG. 15A, 50 μM, SARS-COV2 RBD on SA chip

Row | Molecule | Activity (actual) (SARS-COV-2 spike protein; SARS-COV2 RBD on SA chip) | Activity (calculated) (SARS-COV-2 spike protein; SARS-COV2 RBD on SA chip) | Rmax (actual) (SARS-COV-2 spike protein; SARS-COV2 RBD on SA chip) | Rmax (calculated) (SARS-COV-2 spike protein; SARS-COV2 RBD on SA chip) | remaining activity at 100 µM (ACE2) | IC50 (ACE2) | also measured
1 | hesperidin | 72% | 40% | 72.7 RU | 40.4 RU |  |  | viability normalized to SARS-COV-2 spike protein treatment alone and vehicle (Calu-3 cell line): over 80%; Activity (50 μM) (SARS-COV-2 spike protein; [1]): 98%; Rmax (50 μM) (SARS-COV-2 spike protein; [1]): 94.3 RU; SPR binding activity, in words (SARS-COV-2 spike protein; initial experiment, MCK mode from 10 μM): displayed binding activity with slow dissociation; activity (inhibitory effect on binding to SARS-COV-2 spike protein and ACE2) (SARS-COV-2 spike protein; summary statement of Example 1): 82%
2 | COc1ccc(C2CC(=O)c3c(O)cc(O)cc3O2)cc1O (stereo not drawn) [hesperetin] |  |  |  |  |  |  | Calu-3 viability after compound + SARS-COV-2 spike protein treatment, in words (Calu-3 cell line): decrease of viability in a hesperetin concentration-dependent manner
3 | COc1ccc(C[C@H](N)C(=O)N[C@H]2[C@@H](O)[C@H](n3cnc4c(N(C)C)ncnc43)O[C@@H]2CO)cc1 [Puromycin, puromycin, reference compound] |  |  |  |  |  |  | Percent viable cells (%) normalized to vehicle control and puromycin (Calu-3 cell line; human): 0.00%
4 | O=C1C[C@@H](c2ccc(O)cc2)Oc2cc(O)cc(O)c21 [Naringenin, naringenin] |  |  |  |  | 57% | 36.2 µM | 
5 | COc1ccc(-c2cc(=O)c3c(OC)c(OC)c(OC)c(OC)c3o2)cc1OC [nobiletin] |  |  |  |  | 60% | 26.5 µM | 
6 | C[C@@H]1O[C@@H](OC[C@H]2O[C@@H](Oc3c(-c4ccc(O)c(O)c4)oc4cc(O)cc(O)c4c3=O)[C@H](O)[C@@H](O)[C@@H]2O)[C@H](O)[C@H](O)[C@H]1O [Rutin, rutin] | 21% | 17% | 21.0 RU | 16.7 RU | 44% | 39.4 µM | 

— patent US20250381207A1, “FLAVONOID-CONTAINING COMPOSITIONS AND TREATMENT OF VIRAL DISEASES WITH SAME” (priority 2024, published 2025)
